Assay results as given in patent publication US20160106106A1, “DRUG-RESISTANT MICROBE AND VARIANT MICROBE DISINFECTANT CONTAINING CHLOROUS ACID AQUEOUS SOLUTION” (HONBU SANKEI CO., LTD., priority 2013, published 2016).
Where two headings read alike, the source gives them in different places.

How the values were obtained:
[1] = system: contaminating microbes in urine (MDRP); assay: Growth suppressing effect against contaminating microbes in urine (MDRP); type: cell-based, Pseudomonas aeruginosa; details: 10 ppm, 50 ppm, 100 ppm, FIGS. 5 and 6
Procedure: (§1) The testing method was in accordance with the above-described Examples. The samples prepared as stated above were used.
(§2) Tests were conducted twice using similar samples.

MRSA = assay: Growth suppressing effect against contaminating microbes in urine (MRSA); type: cell-based, Staphylococcus aureus; details: 10 ppm, 50 ppm, 100 ppm, FIG. 6
Procedure: as §1, §2

[2] = system: Escherichia coli O157 sakai strain (1996, RIMD0509952) on chicken meat (breast meat)
[3] = system: Campylobacter jejuni JCM2013 on chicken meat (breast meat)
Procedure: 1) Enterohemorrhagic Escherichia coli O157: Escherichia coli O157 sakai strain (1996, RIMD0509952) 2) Campylobacter: Campylobacter jejuni JCM2013
2) Campylobacter: Campylobacter jejuni JCM2013 (selected medium: CCDA plate medium)
The selected medium was streaked. A single colony of tested microbes cultured for 48 hours at 37° C. in microaerophilic conditions was extracted with a platinum loop. The colony was then inoculated in a 50 mL×3 BHI medium, shaken and cultured under aerobic conditions for 48 hours at 37° C. (shake rate: 100 rpm).
Chicken meat (breast meat): About 2 kg of domestic (location unknown) chicken breast meat that was purchased the day before the tests was used.
Each cultured microbial solution was centrifuged (rate of centrifugation: 6000 rpm). The liquid medium of the supernatant was disposed. Then, the microbial solution prepared by diluting with sterilized saline to approximately 10^7 was put into a manually operated spray in the same amount to make a 10^6 microbe suspension.

[4] = system: Microbes of the genus Paenibacillus; assay: Microbe disinfecting effect on microbes isolated from isolator, Paenibacillus; type: cell-based; details: average ± S.D.
Procedure: (§3) In the present Example, since the isolator for raising microbe-free mice was contaminated by environmental microbes, microbes were isolated from the isolator, and microbe disinfecting effects were examined in vitro using various antiseptics of interest.
(§4) Three species of microbes were isolated to analyze 16SrDNA.
(§5) (1) A single colony of each isolated microbe that was cultured in a BHI agar medium was cultured for two days at 37° C. in 5 mL of BHI medium. (2) After collecting microbes by centrifuging (3000×g, 4° C., 10 min) the culturedmicrobial solution, the microbes were washed twice with sterile saline (0.85%) to prepare a microbial solution of about 10^7 CFU/ml (Inoculam value). (3) Each agent of interest was prepared by diluting with sterile ion exchange water to have a predetermined concentration. 9 mL of each diluent was dispensed into a sterilized test tube. (4) 1 mL of the microbial solution prepared in (2) was added to the agent-containing test tube. A vortex mixer was used to mix well. (5) 1 mL was sampled from the test tube of (4) at a predetermined time. The sampling was added to and mixed with 0.05 mol/L sodium thiosulfate solution for neutralization. (6) 1 mL of the solution after the neutralization treatment was spread on a petri dish. The solution was pour-plate cultured for 24 hours at 37° C. in a BHI agar medium. The number of surviving microbes that had grown was measured.
(§6) The operation was performed three times, and microbial disinfection was evaluated by average value±standard deviation (S. D.)

[5] = system: Microbes of the genus Bacillus; assay: Microbe disinfecting effect on microbes isolated from isolator, Bacillus; type: cell-based; details: average ± S.D.
Procedure: as §3, §4
as §5, with “(2) After collecting microbes by centrifuging (3000×g, 4° C., 10 min) the culturedmicrobial solution, the microbes were washed twice with sterile saline (0.85%) to prepare a microbial solution of about 10^7 CFU/ml (Inoculam value).” left out
as §6

[6] = Sampling 3: after soaking 30 minutes at 400 ppm, raw material:liquid = 1:10
[7] = Sampling 4: after soaking 30 minutes at 400 ppm, washing and draining
[8] = Sampling 5: after soaking 30 minutes at 400 ppm, washing, storage for 24 hours at 4° C.

Compound: OCl [Sodium hypochlorite]
- growth suppressing effect [1]: growth suppressing effect
- growth suppressing effect (MRSA): growth suppressing effect
- number of E. coli O-157 on the chicken meat [2, 6]: 3.3 × 10^4 cfu/mL
- number of E. coli O-157 on the chicken meat [2, 7]: 1.6 × 10^4 cfu/mL
- number of E. coli O-157 on the chicken meat [2, 8]: 5.0 × 10^4 cfu/mL
- number of Campylobacter on the chicken meat [3, 6]: 2.5 × 10^5 cfu/mL
- number of Campylobacter on the chicken meat [3, 7]: 3.2 × 10^5 cfu/mL
- number of Campylobacter on the chicken meat [3, 8]: 4.8 × 10^5 cfu/mL
- number of surviving microbes ([4]; 200 ppm, 5 min): 4.80 ± 0.25 log10 cfu/mL
- number of surviving microbes ([4]; 200 ppm, 10 min): 4.86 ± 0.41 log10 cfu/mL
- number of surviving microbes ([4]; 200 ppm, 30 min): 3.75 ± 0.53 log10 cfu/mL
- number of surviving microbes ([4]; 500 ppm, 5 min): 4.07 ± 0.12 log10 cfu/mL
- number of surviving microbes ([4]; 500 ppm, 10 min): 3.61 ± 0.09 log10 cfu/mL
- number of surviving microbes ([4]; 500 ppm, 30 min): 3.61 ± 0.26 log10 cfu/mL
- number of surviving microbes ([4]; 1000 ppm, 5 min): <2.00 log10 cfu/mL
- number of surviving microbes ([4]; 1000 ppm, 10 min): <2.00 log10 cfu/mL
- number of surviving microbes ([4]; 1000 ppm, 30 min): <2.00 log10 cfu/mL
- number of surviving microbes ([5]; 200 ppm, 5 min): 5.60 ± 0.22 log10 cfu/mL
- number of surviving microbes ([5]; 200 ppm, 10 min): 5.53 ± 0.62 log10 cfu/mL
- number of surviving microbes ([5]; 200 ppm, 30 min): 5.34 ± 0.34 log10 cfu/mL
- number of surviving microbes ([5]; 500 ppm, 5 min): 5.55 ± 0.45 log10 cfu/mL
- number of surviving microbes ([5]; 500 ppm, 10 min): 5.49 ± 0.28 log10 cfu/mL
- number of surviving microbes ([5]; 500 ppm, 30 min): 4.85 ± 0.32 log10 cfu/mL
- number of surviving microbes ([5]; 1000 ppm, 5 min): 3.55 ± 0.46 log10 cfu/mL

Compound: Sodium chlorite
- growth suppressing effect [1]: growth suppressing effect
- growth suppressing effect (MRSA): growth suppressing effect
